Values of other authors, collected in patent US20150366189A1, “DRY MELT COATING PROCESS AND FORMULATION FOR VOLATILE COMPOUNDS” (AGROFRISH INC., priority 2013, published 2015).

Conditions: enclosed space

CC1=CC1 [Experiment 1-MCP, 1-Methylcyclopropene]
concentration threshold above which 1-MCP is flammable: > 13,300 ppm
